# Several values for one entry are separate records, joined by “and”; a condition that tells them apart may be missing. Equal values may be shown once. Entries after “also recorded” stand apart in the source; their conditions may differ.
# Experiments:
# [1] = system: patients with treatment-resistant OCD under stable treatment with SRIs; assay: Ondansetron augmentation therapy (SRI), single-blind 12-week study with 4-week discontinuation follow-up; format: in vivo, human; set-up: average reduction in CGI scores for the whole group / YBOCS % Reduction, 6 Weeks: concentration or dose not given beside the values; conditions: for worsening of YBOCS symptoms during the discontinuation phase: after Week 12
# Protocol: Twenty-one patients with a DSM-IV diagnosis of treatment-resistant OCD, under stable treatment with SRIs approved by the FDA for OCD therapy, received 12 weeks of single-blind ondansetron augmentation initiated at a dose of 0.25 mg twice daily for 2 weeks, and titrated to 0.5 mg twice daily for 10 weeks. Patients were rated every two weeks using the Yale Brown Obsessive Compulsive Scale (YBOCS) and Clinical Global Impressions Scale (CGI). Treatment-resistant patients were defined as having completed an adequate trial of SRIs at a moderate to high dose for at least 12 weeks and still having a YBOCS severity of >24, and CGI-Severity of ≧4. Treatment response was defined as an additional 25% reduction in YBOCS score from YBOCS score at the initiation of ondansetron augmentation, an end of treatment (EOT) period YBOCS of ≦24, and CGI-Improvement (CGI-I) of ≦2. Additionally, ondansetron was discontinued after 12 weeks and patients were followed up for another 4 weeks for relapse in YBOCs symptoms.
# [2] = system: OCD patients resistant to SRI plus antipsychotic therapy; assay: Ondansetron augmentation therapy (SRI and antipsychotic), single-blind 12-week study; format: in vivo, human
# Description: Between March 2008 and November 2008, fourteen adults aged 18 to 55 were enrolled in a study at the Institute for Neuroscience, Florence, Italy. […] All diagnoses were established utilizing a structured interview, the Structured Clinical Interview for DSM IV Axis I Disorders (SCID I). (See Spitzer, R. L. et al. ARCH GEN PSYCHIATRY 49(8):624-649) Potential subjects with a history of alcohol or substance abuse, current severe depressive symptoms, bipolar disorder, panic disorder, schizophrenia, other psychiatric conditions, heart disease, arrhythmia, liver problems (including cirrhosis), seizures, glaucoma or serious medical disease were excluded. Patients with hoarding as their only OCD symptom and women of childbearing potential not using a medically acceptable contraceptive method were also excluded. After being fully informed about the study and signing an informed consent approved by the Internal Institutional Review Board, subjects were administered an ondansetron hydrochloride (oral solution) dosage of 0.25 mg twice a day for 6 weeks, followed by 0.5 mg twice a day for 6 weeks for a total observation period of 12 weeks. […] The Y-BOCS, Montgomery-Asberg Depression Rating Scale (MADRS) (see Montgomery, S. A., BR J PSYCHIATRY 1979; 134:382-389) was administered at screening and baseline, and these assessments were repeated at every follow-up visit at 2-week intervals, along with the Clinical Global Impressions-Improvement (CGI-I) rating (see Guy, W. ECDEU Assessment Manual for Psychopharmacology. US Dept Health, Education, and Welfare publication (ADM) 76-338. Rockville, Md.: National Institute of Mental Health; 1976:218-222) and an unpublished Drug Effect scale. The Drug Effect scale asked subjects to rate “How anxious are you now?” on a scale of zero (not at all) to 10 (“the most anxious I have ever been”). Similar rating questions have been “Do you experience appearance or increment in frequency of headaches?”, “Do you experience appearance or increment in frequency of headaches fatigue?” and “Do you experience appearance or increment in frequency of headaches constipation” and so on regarding other common ondansetron side effects (diarrhea, urinary retention, itching, and dizziness). Furthermore, each evening during the first week of study medication, a study psychiatrist called the subject to ask for major or unexpected collateral effects (as chest pain, an unexplained skin rash, or tremors.). […] (See […]. et al., Am J PSYCHIATRY 1997; 154:320-321) Subjects with MADRS scores ≧18 were excluded. Ratings were administered by an investigator who was blind to the treatment condition of the patients. Given the small sample size, mean changes from baseline in rating scales were tested with a non-parametric method based on ranks (Wilcoxon signed rank test), using a two-tailed significance level of p≦0.05. Relationships among rated and demographical variables were tested with Spearman's rank correlation tests, using a two-tailed significance level of p≦0.05. Age, baseline OCD severity, and depressive symptoms were controlled for by stratifying through the Mantel-Haenszel χ2 test. Body mass index (BMI) was adjusted given the differences of ondansetron bioavailability according to BMI.
# [3] = system: mesenteric bed or the nerves in the heart; conditions: animal studies; cited from earlier work
# [4] = end of 6th week, non responders (n = 9)
# [5] = end of 12th week, non responders (n = 9)
# [6] = end of 12th week, responders (n = 12)
# [7] = individual patients, versus baseline
# [8] = individual patients, EC: week 1 score carried forward
# [9] = end of 6th week, non responders (n = 5)
# [10] = end of 6th week, responders (n = 9)
# [11] = end of 12th week, non responders (n = 5)
# [12] = end of 12th week, responders (n = 9)
# [13] = individual patients 1-14, versus baseline
structure (smiles),measurement,setting,value
Cc1nccn1CC1CCc2c(c3ccccc3n2C)C1=O (stereo not drawn) [ondansetron],tolerability of treatment,"[1]; 12 weeks, up to 0.5 mg twice daily",well tolerated
same,% Decrease in YBOCS Scores,"[1]; All Patients, week 2",12.66%
same,Avg YBOCS Scores,"[1]; All Patients, week 2",26.29
same,% Decrease in YBOCS Scores,"[1]; All Patients, week 4",16.93%
same,Avg YBOCS Scores,"[1]; All Patients, week 4",25
same,% Decrease in YBOCS Scores,"[1]; All Patients, week 6",19.3%
same,Avg YBOCS Scores,"[1]; All Patients, week 6",24.29
same,% Decrease in YBOCS Scores,"[1]; All Patients, week 8",21.99%
same,Avg YBOCS Scores,"[1]; All Patients, week 8",23.48
same,% Decrease in YBOCS Scores,"[1]; All Patients, week 10",24.21%
same,Avg YBOCS Scores,"[1]; All Patients, week 10",22.81
same,% Decrease in YBOCS Scores,"[1]; All Patients, week 12",26.27%
same,Avg YBOCS Scores,"[1]; All Patients, week 12",22.19
same,Avg YBOCS Scores,"[1]; All Patients, week 14 (ondansetron discontinued after week 12)",24.95
same,Avg YBOCS Scores,"[1]; All Patients, week 16 (ondansetron discontinued after week 12)",25.43
same,% Decrease in YBOCS Scores,"[1]; Non-Responders, week 2",2.93%
same,% Decrease in YBOCS Scores,"[1]; Non-Responders, week 4",2.93%
same,% Decrease in YBOCS Scores,"[1]; Non-Responders, week 6",2.56%
same,% Decrease in YBOCS Scores,"[1]; Non-Responders, week 8",2.2%
same,% Decrease in YBOCS Scores,"[1]; Non-Responders, week 10",1.47%
same,% Decrease in YBOCS Scores,"[1]; Non-Responders, week 12",2.93%
same,% Decrease in YBOCS Scores,"[1]; Responders, week 2",20.06%
same,% Decrease in YBOCS Scores,"[1]; Responders, week 4",27.58%
same,% Decrease in YBOCS Scores,"[1]; Responders, week 6",32.03%
same,% Decrease in YBOCS Scores,"[1]; Responders, week 8",37.05%
same,% Decrease in YBOCS Scores,"[1]; Responders, week 10",41.5%
same,% Decrease in YBOCS Scores,"[1]; Responders, week 12",44.01%
same,patients experiencing a treatment response in 12 weeks or less,[1]; Twelve of the 21 patients,57%
same,"difference between YBOCS score at baseline and after 12 weeks, non-responders",[1]; after 12 weeks,2.9%
same,"reduction in CGI-I from baseline, responders",[1]; after 12 weeks,77%
same,"reduction in YBOCS from baseline, responders",[1]; after 12 weeks,44%
same,worsening of YBOCS symptoms during the discontinuation phase,[1]; all patients,14.6%
same,worsening of YBOCS symptoms during the discontinuation phase,[1]; responders,38.3%
same,patients experiencing response within the first 6 weeks,"[1]; eight of 21 patients, 25% improvement in YBOCS, EOT YBOCS <24, CGI-I=1-2",38%
same,"CGI (mean, SD)",[1]; [4],4.63 (0.5)
same,"YBOCS (mean, SD)",[1]; [4],29.56 (4.0)
same,"CGI (mean, SD)","[1]; end of 6th week, responders (n = 12)",1.92 (0.7)
same,"YBOCS (mean, SD)","[1]; end of 6th week, responders (n = 12), added to SRI",20.33 (3.8)
same,"CGI (mean, SD)",[1]; [5],4.88 (0.4)
same,"YBOCS (mean, SD)",[1]; [5],29.44 (4.8)
same,"CGI (mean, SD)",[1]; [6],1.17 (0.4)
same,"YBOCS (mean, SD)",[1]; [6],16.75 (2.7)
same,"CGI-I Score, 6 Weeks",[1]; individual patients,2 (7×) and 3 (2×) and 5 (6×) and 1 (3×) and 4 (3×)
same,"CGI-I Score, 12 Weeks",[1]; individual patients,1 (10×) and 5 (8×) and 4 and 2 (2×)
same,"YBOCS % Reduction, 6 Weeks",[1]; [7],31.25% and 34.48% and 9.68% and 16.00% and 32.14% and 34.38% and 42.42% and 28.95% and 27.27% and 7.69% and 41.67% and 0.00% (3×) and 5.00% and 37.04% and 19.35% and −3.57% (2×) and 40.74% and 6.06%
same,"YBOCS % Reduction, 12 Weeks",[1]; [7],34.38% and 41.38% and 9.68% and 44.00% and 42.86% and 50.00% and 51.52% and 44.74% and 42.42% and 11.54% and 45.83% and 13.79% and 2.50% and −6.25% and 48.15% and 38.71% and −7.14% and −3.57% and 44.44% and −3.85% and 9.09%
same,"YBOCS Score, 6 Weeks",[1]; [8],22 and 19 (3×) and 28 and 21 (2×) and 27 and 24 (2×) and 14 and 29 (3×) and 38 and 32 and 17 and 25 and 16 and 26 and 31
same,"YBOCS Score, 12 Weeks",[1]; [8],21 (2×) and 17 and 28 and 14 (2×) and 16 (3×) and 19 (2×) and 23 and 13 and 25 and 39 and 34 and 30 (2×) and 29 and 15 and 27
same,average reduction in CGI scores for the whole group,"[1]; n = 21, 12 weeks",46%
same,average reduction in YBOCS-rated symptoms of the whole group,"[1]; n = 21, 12 weeks",26.3%
same,average YBOCS score change of the whole group (decrease),"[2]; 6 weeks, n = 14",16%
same,"YBOCS score decrease, Patient 11","[2]; 12th week, with citalopram 60 mg/day and risperidone 2 mg/day",35%
same,responders to ondansetron among patients on risperidone,"[2]; 12 weeks, six of seven patients",86%
same,side effects throughout the study (severity),"[2]; 12 weeks, up to 1 mg/day",mild to moderate
same,patients meeting YBOCS criteria for treatment response (reduction >25%),"[2]; end of 6th week, 3/14 patients",21.4%
same,"CGI (mean, SD)",[2]; [9],4.6 (1.5)
same,"MADRS (mean, SD)",[2]; [9],8.0 (4.0)
same,"YBOCS (mean, SD)",[2]; [9],22.8 (3.8)
same,"CGI (mean, SD)",[2]; [10],3.4 (1.6)
same,"MADRS (mean, SD)",[2]; [10],6.7 (2.4)
same,"YBOCS (mean, SD)","[2]; end of 6th week, responders (n = 9), 0.25 mg twice a day added to SRI + antipsychotic",22.6 (4.2)
same,"CGI (mean, SD)",[2]; [11],4.8 (1.3)
same,"MADRS (mean, SD)",[2]; [11],7.6 (3.8)
same,"YBOCS (mean, SD)",[2]; [11],21.4 (6.1)
same,"CGI (mean, SD)",[2]; [12],2.3 (1.2)
same,"MADRS (mean, SD)",[2]; [12],6.8 (2.0)
same,"YBOCS (mean, SD)","[2]; end of 12th week, responders (n = 9), 0.5 mg twice a day in weeks 7-12",20.8 (4.1)
same,average YBOCS change score of the whole group (decrease),"[2]; end of 12 weeks, n = 14",23% and 23.2%
same,decreased appetite (number of patients),[2]; first 2 weeks of treatment,two
same,headache (number of patients),[2]; first 2 weeks of treatment,two
same,significant side effects,[2]; fourteen subjects,None of the fourteen subjects experienced significant side effects or worsening of OC symptoms; also recorded: None of the subjects experienced significant or lasting side effects
same,Mean MADRS scores,[2]; from baseline to the end of week 1,did not change significantly
same,"YBOCS Score, 6 Weeks",[2]; individual patients 1-14,25 (3×) and 28 and 17 (2×) and 16 and 27 and 26 and 24 (3×) and 19 and 21
same,"YBOCS Score, 12 Weeks",[2]; individual patients 1-14,25 (3×) and 15 (2×) and 14 and 30 and 23 and 22 (2×) and 24 and 18 and 17 and 20
same,Percent Reduction at 6 weeks (YBOCS),[2]; [13],3.84% and 28.57% and 20.00% (2×) and 15.00% and 12.90% and 21.20% and 31.42% and 27.27% and 20.80% and 4.54% and 10.52% and .00% and 19.32%
same,Percent Reduction at 12 weeks (YBOCS),[2]; [13],3.84% and 28.57% (2×) and 25.00% (2×) and 30.00% and 3.22% and 27.27% (2×) and 37.14% and 22.72% and 21.05% and 16.60% and 29.03%
same,mild increase in anxiety levels (number of patients),[2]; lasted only one night,One
same,Clinical Global Impressions-Improvement (CGI-I) scores,[2]; through week 12 (FIG. 4),improved concurrent with improvement in the YBOCS scores
same,mean pulse rate or mean blood pressure,[2]; throughout the study,No change
same,course after discontinuation of the ondansetron,[2]; two responder patients,experienced worsening
same,effect on the mesenteric bed or the nerves in the heart,[3],did not appear to have effect on the mesenteric bed or the nerves in the heart
